Measured values: US20090317842A1, “Methods and Tools for The Therapy of Neurodegenerative Pathologies” (EXONHIT THERAPEUTICS SA, priority 2006, published 2009)

Tests used:
[1] = tested on: cortical neurons; experiment: Neuroprotection against Aβ25-35 amyloid peptide toxicity in neuronal cultures (MTT test); type: cell-based, Wistar rat; conditions: Aβ25-35 33.5 μM
Method: Aβ25-35 peptide contains the neurotoxic fragment of the amyloid peptide and is a tool classically used to study the neuroprotective effects of compounds. At the beginning of each experiment, the neuronal cultures aged 7-10 days are changed with fresh culture medium and treated with the etazolate inhibitor compound, six hours before the addition of Aβ25-35 amyloid peptide at a concentration of 33.5 μM In a classical and reproducible manner, this concentration generates 30% to 40% toxicity in neuronal cultures. Several experiments are undertaken to characterize the neuroprotective effect of etazolate. […] In order to determine whether it is the inhibition of sAPPalpha or its production that provides the neuroprotective effect of etazolate against amyloid peptide, a neutralizing anti-sAPPα antibody (3E9 antibody) and alpha secretase inhibitors are respectively used. For the neutralization of sAPPα, 3E9 antibody (5 μg/ml) is added to the cortical cells at the same time as the etazolate. Two alpha secretase inhibitors, the compound Furin Inhibitor […], Sohn J H, Lee […], Mook-Jung I. Furin is an endogenous regulator of alpha-secretase associated APP processing. Biochem Biophys Res Commun. 2006 Oct. 20; 349(2):654-9.) and TAPI (Slack […]. […] Biochem J. 2001 Aug. 1; 357(Pt 3):787-94) are used in pretreatment one hour before the addition of the etazolate. All the treatments are effected at least twice and in at least two different cultures. After an incubation of 48 hours, the toxicity is measured by an MTT test. The results, normalized to the untreated mean, are statistically analyzed by the Wilcoxon test. The significant value is determined at p less than or equal to 0.05. The toxicity is measured by using the MTT test. After incubation with the compounds, MTT is added at a final concentration of 0.5 mg/mL by wells. The plates are then incubated for 30 minutes at 37° C. at night. The medium is drawn off and the crystals are resuspended in 500 μL of DMSO (dimethylsulfoxide). The absorbance at 550 nm is read and the viability percentage is calculated.

[2] = tested on: sAPPalpha; experiment: sAPPalpha production in HEK293 cells over-expressing human APP (ELISA and Western blot); type: cell-based; conditions: HEK293 cells stably over-expressing human APP; variable concentrations; 24 hours; FIG. 5
Method: HEK293 cells transfected in a stable manner over-expressing human APP were kept in Modified Eagle medium containing Earle salt and supplemented by 10% fetal calf serum (FCS), 2 mM L-glutamine (Sigma, Lyon, France), 1× Nonessential Amino Acids and antibiotics. The cells were treated for 48 hours after spreading variable concentrations of the molecules indicated on 10-cm plates, or with DMSO as a carrier, for 24 hours. The sAPPalpha had been measured by ELISA and Western blot by means of commercially available antibodies.

[3] = tested on: sAPPalpha; experiment: sAPPalpha production by cortical neurons (Western blot); type: cell-based, Wistar rat; conditions: 0.2 and 2 μM for 24 h; Western blot densitometry; versus non-treated cultures; FIG. 6
Method: The production of sAPPalpha was measured in cortical neurons isolated from 17-day-old Wistar rat embryos. The cells are obtained from cortical structures that are dissected into a solution containing 0.25% trypsin. The dissociated cells are seeded at a density of 500,000 per cm^2 in a Neurobasal medium containing additives (1×B27, 2 mM L-glutamine, 0.6% glucose, antibiotics and antimycotics, as well as 2% horse serum) in culture dishes coated with 6 μg/mL, of polyornithine. The cells are kept at 37° C. and 5% CO2. 24 hours after seeding, the cells are treated with 5 μM AraC (5 cytosine arabinofuranoside) as an antimitotic agent. After 4 days in vitro, half the medium is exchanged for medium without horse serum and the culture is kept for maturation in this medium for 7 to 10 days. The sAPPalpha was measured by Western blot by means of antibodies available commercially after one change of medium and accumulation in fresh medium for 24 hours. Quantification was done by densitometric analyses of scanned autoradiographic images. […] The results presented are the mean±SEM of three independent experiments performed in duplicate and are expressed the form of percentage of the control (non-treated cultures).

[4] = tested on: sAPPalpha; experiment: sAPPalpha production in vivo in guinea pig brain (ELISA); conditions: 10 mg/kg per os once a day for 15 days; guinea pig cortices; versus excipient; p<1E-4; FIG. 7
Method: The production of sAPPalpha was studied in vivo in the guinea pig, a physiological model for APP processing in the brain. The etazolate or the excipient (physiological saline solution) was administered to male Hartley albino guinea pigs, weighing 250-270 g at the beginning of the experiment, once a day for 15 consecutive days, per os in a dose of 10 mg/kg. One h after the last administration, the guinea pigs were sacrificed and the brains immediately extracted, frozen in nitrogen and stored at −80° C. The cortices were homogenized at 4° C. in a pH 7.5 20 mM Tris base solution containing 0.2% Triton X-100, 50 μg/mL, gentamicin and a protease inhibitor cocktail. The soluble sAPPalpha was measured by an ELISA test and the results normalized with regard to the quantity of proteins present in the extracts.

| Compound | effect on the neuroprotection induced by etazolate ([1]; agent added before or with etazolate, cortical neurons, FIGS. 8-10) | sAPPalpha secretion [2] | salting out of sAPPalpha from cortical neurons [3] | quantity of sAPPalpha measured in the brains [4] | cellular viability ([1]; 0.2 μM etazolate, 48 hours, FIG. 8) [%] | protector effect on neuronal death induced by Aβ25-35 ([1]; co-treatment of neurons, 48 hours, FIG. 8) |
| --- | --- | --- | --- | --- | --- | --- |
| TAPI [reference compound] | inhibited | – | – | – | – | – |
| CCOC(=O)c1cnc2c(cnn2CC)c1NN=C(C)C [etazolate] | – | induces sAPPalpha secretion | stimulates the salting out of sAPPalpha | increase by a factor of three | 90 | dose-dependent protector effect |
